According to PubChem BioAssay AID1745844 (Carcinogenic Potency Database (CPDB), 2022):
The source made the active and inactive calls. The rule behind the calls is not given here.

System: rodent lifetime carcinogenesis bioassay, tumor incidence TD50
Test: chronic cancer bioassays in animals – CPDB, compiled studies (AID 1745844)

O=P(OCC(Br)CBr)(OCC(Br)CBr)OCC(Br)CBr (stereo not given)
TD50 (mouse, strain B6C3F1, females, in feed, site: any site (literature study), lesion: several types, types named in the paper, dosed 103 weeks, study length 104 weeks): 148 mg/kg/day | TD50 (mouse, strain B6C3F1, females, in feed, site: liver + lung + stomach, lesion: hepatocellular adenoma + hepatocellular carcinoma + alveolar/bronchiolar adenoma + alveolar/bronchiolar carcinoma + squamous-cel, dosed 103 weeks, study length 104 weeks): 80.1 mg/kg/day | TD50 (mouse, strain B6C3F1, females, in feed, site: liver, lesion: hepatocellular adenoma + hepatocellular carcinoma + neoplastic nodule, dosed 103 weeks, study length 104 weeks): 95 mg/kg/day | TD50 (mouse, strain B6C3F1, females, in feed, site: liver, lesion: hepatocellular adenoma + hepatocellular carcinoma, dosed 103 weeks, study length 104 weeks): 95 mg/kg/day | TD50 (mouse, strain B6C3F1, females, in feed, site: liver, lesion: hepatocellular carcinoma, dosed 103 weeks, study length 104 weeks): 221 mg/kg/day | TD50 (mouse, strain B6C3F1, females, in feed, site: lung, lesion: alveolar/bronchiolar adenoma + alveolar/bronchiolar carcinoma, dosed 103 weeks, study length 104 weeks): 225 mg/kg/day | TD50 (mouse, strain B6C3F1, females, in feed, site: stomach, lesion: squamous-cell carcinoma + squamous-cell papilloma, dosed 103 weeks, study length 104 weeks): 127 mg/kg/day | TD50 (mouse, strain B6C3F1, females, in feed, site: stomach, lesion: squamous-cell carcinoma, dosed 103 weeks, study length 104 weeks): 611 mg/kg/day | TD50 (mouse, strain B6C3F1, females, in feed, site: uterus, lesion: endometrial stromal polyp, dosed 103 weeks, study length 104 weeks): 264 mg/kg/day | TD50 (mouse, strain B6C3F1, males, in feed, site: any site (literature study), lesion: several types, types named in the paper, dosed 103 weeks, study length 104 weeks): 2220 mg/kg/day | TD50 (mouse, strain B6C3F1, males, in feed, site: kidney + lung + stomach, lesion: tubular-cell adenoma + tubular-cell adenocarcinoma + alveolar/bronchiolar adenoma + alveolar/bronchiolar carcinoma + squamous-ce, dosed 103 weeks, study length 104 weeks): 103 mg/kg/day | TD50 (mouse, strain B6C3F1, males, in feed, site: kidney, lesion: tubular-cell adenocarcinoma, dosed 103 weeks, study length 104 weeks): 822 mg/kg/day | TD50 (mouse, strain B6C3F1, males, in feed, site: kidney, lesion: tubular-cell adenoma + tubular-cell adenocarcinoma, dosed 103 weeks, study length 104 weeks): 256 mg/kg/day | TD50 (mouse, strain B6C3F1, males, in feed, site: liver, lesion: hepatocellular adenoma + hepatocellular carcinoma + neoplastic nodule, dosed 103 weeks, study length 104 weeks): 172 mg/kg/day | TD50 (mouse, strain B6C3F1, males, in feed, site: lung, lesion: alveolar/bronchiolar adenoma + alveolar/bronchiolar carcinoma, dosed 103 weeks, study length 104 weeks): 211 mg/kg/day | TD50 (mouse, strain B6C3F1, males, in feed, site: lung, lesion: alveolar/bronchiolar carcinoma, dosed 103 weeks, study length 104 weeks): 449 mg/kg/day | TD50 (mouse, strain B6C3F1, males, in feed, site: stomach, lesion: squamous-cell carcinoma + squamous-cell papilloma, dosed 103 weeks, study length 104 weeks): 197 mg/kg/day | TD50 (rat, strain Fischer 344, females, in feed, site: any site (literature study), lesion: several types, types named in the paper, dosed 103 weeks, study length 104 weeks): 23 mg/kg/day | TD50 (rat, strain Fischer 344, females, in feed, site: kidney, lesion: tubular-cell adenoma, dosed 103 weeks, study length 104 weeks): 13.8 mg/kg/day | TD50 (rat, strain Fischer 344, females, in feed, site: liver, lesion: hepatocellular adenoma + hepatocellular carcinoma + neoplastic nodule, dosed 103 weeks, study length 104 weeks): 2820 mg/kg/day | TD50 (rat, strain Fischer 344, females, in feed, site: ovary, lesion: Sertoli-cell tumor, dosed 103 weeks, study length 104 weeks): 66.4 mg/kg/day | TD50 (rat, strain Fischer 344, males, by gavage, site: colon, lesion: polypoid adenoma, dosed 52 weeks, study length 52 weeks): 13.4 mg/kg/day | TD50 (rat, strain Fischer 344, males, by gavage, site: kidney, lesion: adenocarcinoma, dosed 52 weeks, study length 52 weeks): 54.8 mg/kg/day | TD50 (rat, strain Fischer 344, males, in feed, site: any site (literature study), lesion: several types, types named in the paper, dosed 103 weeks, study length 104 weeks): 8.31 mg/kg/day | TD50 (rat, strain Fischer 344, males, in feed, site: kidney, lesion: tubular-cell adenocarcinoma, dosed 103 weeks, study length 104 weeks): 63.3 mg/kg/day | TD50 (rat, strain Fischer 344, males, in feed, site: kidney, lesion: tubular-cell adenoma + tubular-cell adenocarcinoma, dosed 103 weeks, study length 104 weeks): 1.57 mg/kg/day | TD50 (rat, strain Fischer 344, males, in feed, site: kidney, lesion: tubular-cell adenoma, dosed 103 weeks, study length 104 weeks): 1.57 mg/kg/day | TD50 (rat, strain Fischer 344, males, in feed, site: liver, lesion: hepatocellular adenoma + hepatocellular carcinoma + neoplastic nodule, dosed 103 weeks, study length 104 weeks): 34.3 mg/kg/day | TD50 (rat, strain Fischer 344, males, in feed, site: liver, lesion: hepatocellular carcinoma + neoplastic nodule, dosed 103 weeks, study length 104 weeks): 34.3 mg/kg/day | TD50 (rat, strain Fischer 344, males, in feed, site: preputial gland, lesion: adenocarcinoma, NOS + adenoma, NOS + carcinoma, NOS, dosed 103 weeks, study length 104 weeks): 20.3 mg/kg/day

CCCOC(=O)C1c2cc3c(cc2CC(C)C1C(=O)OCCC)OCO3 (stereo not given)
TD50 (mouse, strain B6AKF1, females, oral dosing, site: any site (literature study), lesion: several types, types named in the paper, dosed 76 weeks, study length 76 weeks): 4390 mg/kg/day (inactive) | carcinogen call (mouse, strain B6AKF1, females, oral dosing, site: liver, lesion: hepatoma, dosed 76 weeks, study length 76 weeks): negative (inactive) | TD50 (mouse, strain B6AKF1, females, oral dosing, site: lung, lesion: adenoma, dosed 76 weeks, study length 76 weeks): 4690 mg/kg/day (inactive) | carcinogen call (mouse, strain B6AKF1, males, oral dosing, site: any site (literature study), lesion: several types, types named in the paper, dosed 76 weeks, study length 76 weeks): negative (inactive) | carcinogen call (mouse, strain B6AKF1, males, oral dosing, site: liver, lesion: hepatoma, dosed 76 weeks, study length 76 weeks): negative (inactive) | carcinogen call (mouse, strain B6AKF1, males, oral dosing, site: lung, lesion: adenoma, dosed 76 weeks, study length 76 weeks): negative (inactive) | carcinogen call (mouse, strain B6C3F1, females, oral dosing, site: any site (literature study), lesion: one or several types, types not named, dosed 76 weeks, study length 76 weeks): negative (inactive) | carcinogen call (mouse, strain B6C3F1, females, oral dosing, site: liver, lesion: hepatoma, dosed 76 weeks, study length 76 weeks): negative (inactive) | carcinogen call (mouse, strain B6C3F1, females, oral dosing, site: lung, lesion: several types, types named in the paper, dosed 76 weeks, study length 76 weeks): negative (inactive) | TD50 (mouse, strain B6C3F1, males, oral dosing, site: any site (literature study), lesion: several types, types named in the paper, dosed 76 weeks, study length 76 weeks): 374 mg/kg/day (inactive) | TD50 (mouse, strain B6C3F1, males, oral dosing, site: liver, lesion: hepatoma, dosed 76 weeks, study length 76 weeks): 1050 mg/kg/day (inactive) | TD50 (mouse, strain B6C3F1, males, oral dosing, site: lung, lesion: adenoma, dosed 76 weeks, study length 76 weeks): 4650 mg/kg/day (inactive)

CCOc1ccc(NC(C)=O)cc1N
TD50 (mouse, strain B6C3F1, females, in feed, site: any site (literature study), lesion: several types, types named in the paper, dosed 78 weeks, study length 93 weeks): 569 mg/kg/day | TD50 (mouse, strain B6C3F1, females, in feed, site: lung, lesion: alveolar/bronchiolar adenoma + alveolar/bronchiolar carcinoma, dosed 78 weeks, study length 93 weeks): 8630 mg/kg/day | TD50 (mouse, strain B6C3F1, females, in feed, site: pituitary gland, lesion: adenoma, NOS + carcinoma, NOS + chromophobe adenoma, dosed 78 weeks, study length 93 weeks): 1050 mg/kg/day (inactive) | TD50 (mouse, strain B6C3F1, males, in feed, site: liver, lesion: hepatocellular adenoma + hepatocellular carcinoma + neoplastic nodule, dosed 78 weeks, study length 93 weeks): 8990 mg/kg/day | TD50 (mouse, strain B6C3F1, males, in feed, site: thyroid gland, lesion: adenocarcinoma, NOS + adenoma, NOS + follicular-cell adenoma + follicular-cell carcinoma, dosed 78 weeks, study length 93 weeks): 2070 mg/kg/day | TD50 (mouse, strain B6C3F1, males, in feed, site: thyroid gland, lesion: adenocarcinoma, NOS + follicular-cell carcinoma, dosed 78 weeks, study length 93 weeks): 4020 mg/kg/day | TD50 (mouse, strain B6C3F1, males, in feed, site: thyroid gland, lesion: follicular-cell carcinoma, dosed 78 weeks, study length 93 weeks): 3770 mg/kg/day | TD50 (rat, strain Fischer 344, females, in feed, site: adrenal gland, lesion: cortical adenoma + cortical carcinoma, dosed 78 weeks, study length 106 weeks): 415 mg/kg/day (inactive) | TD50 (rat, strain Fischer 344, females, in feed, site: liver, lesion: hepatocellular adenoma + hepatocellular carcinoma + neoplastic nodule, dosed 78 weeks, study length 106 weeks): 717 mg/kg/day | TD50 (rat, strain Fischer 344, males, in feed, site: thyroid gland, lesion: c-cell carcinoma, dosed 78 weeks, study length 106 weeks): 610 mg/kg/day (inactive)

CC(O)CN(C)c1ccc(NN)nn1 (stereo not given)
TD50 (mouse, strain B6C3F1, females, in drinking water, site: liver, lesion: several types, types named in the paper, dosed 80 weeks, study length 123 weeks): 503 mg/kg/day (inactive) | carcinogen call (mouse, strain B6C3F1, females, in drinking water, site: lung, lesion: several types, types named in the paper, dosed 80 weeks, study length 123 weeks): negative (inactive) | TD50 (mouse, strain B6C3F1, males, in drinking water, site: liver, lesion: several types, types named in the paper, dosed 80 weeks, study length 123 weeks): 922 mg/kg/day (inactive) | carcinogen call (mouse, strain B6C3F1, males, in drinking water, site: lung, lesion: several types, types named in the paper, dosed 80 weeks, study length 123 weeks): negative (inactive) | TD50 (mouse, strain BALB/cLacDp, females, in drinking water, site: all sites, lesion: lymphoma, dosed 80 weeks, study length 123 weeks): 408 mg/kg/day (inactive) | carcinogen call (mouse, strain BALB/cLacDp, females, in drinking water, site: liver, lesion: hepatocellular adenoma, dosed 80 weeks, study length 123 weeks): negative (inactive) | carcinogen call (mouse, strain BALB/cLacDp, females, in drinking water, site: lung, lesion: several types, types named in the paper, dosed 80 weeks, study length 123 weeks): negative (inactive)

O=NN1CCOC1
TD50 (hamster, strain Syrian Golden, females, by gavage, site: forestomach, lesion: several types, types named in the paper, dosed 30 weeks, study length 104 weeks): 2.61 mg/kg/day | TD50 (hamster, strain Syrian Golden, males, by gavage, site: any site (literature study), lesion: several types, types named in the paper, dosed 35 weeks, study length 65 weeks): 0.267 mg/kg/day | TD50 (hamster, strain Syrian Golden, males, by gavage, site: liver, lesion: cholangiocarcinoma, dosed 35 weeks, study length 65 weeks): 0.471 mg/kg/day | TD50 (hamster, strain Syrian Golden, males, by gavage, site: liver, lesion: hepatocellular adenoma, dosed 35 weeks, study length 65 weeks): 0.949 mg/kg/day | TD50 (hamster, strain Syrian Golden, males, by gavage, site: liver, lesion: hepatocellular carcinoma, dosed 35 weeks, study length 65 weeks): 2.63 mg/kg/day | TD50 (hamster, strain Syrian Golden, males, by gavage, site: lung, lesion: carcinoma, dosed 35 weeks, study length 65 weeks): 14.8 mg/kg/day

C[C@@H]1C\C=C/C=C/C=C/C=C/[C@H](O[C@@H]2O[C@H](C)[C@@H](O)[C@H](N)[C@@H]2O)C[C@@H]2O[C@](O)(C[C@@H](O)C[C@@H]3O[C@@H]3/C=C\C(=O)O1)C[C@H](O)[C@H]2C(=O)O
carcinogen call (rat, strain CFN, females, in feed, site: liver, lesion: malignant hepatoma, dosed 105 weeks, study length 105 weeks): negative (inactive) | TD50 (rat, strain CFN, males, in feed, site: lung, lesion: lymphosarcoma, dosed 105 weeks, study length 105 weeks): 1970 mg/kg/day (inactive) | carcinogen call (rat, strain CFN, males, in feed, site: thymus gland, lesion: thymoma, dosed 105 weeks, study length 105 weeks): negative (inactive)

C=C(C)[C@H]1CC=C(C)C(=O)C1
carcinogen call (mouse, strain B6C3F1, females, by gavage, site: any site (literature study), lesion: several types, types named in the paper, dosed 103 weeks, study length 105 weeks): negative (inactive) | carcinogen call (mouse, strain B6C3F1, males, by gavage, site: any site (literature study), lesion: several types, types named in the paper, dosed 103 weeks, study length 105 weeks): negative (inactive) | TD50 (mouse, strain B6C3F1, males, by gavage, site: liver, lesion: hepatocellular adenoma + hepatocellular carcinoma + neoplastic nodule, dosed 103 weeks, study length 105 weeks): 63800 mg/kg/day

CN(N=O)c1cccnc1
carcinogen call (rat, strain BD VI, females, by gavage, site: any site (literature study), lesion: benign tumor, dosed 116 weeks, study length 116 weeks): negative (inactive) | TD50 (rat, strain BD VI, females, by gavage, site: any site (literature study), lesion: malignant tumor, dosed 116 weeks, study length 116 weeks): 6.09 mg/kg/day (inactive) | carcinogen call (rat, strain BD VI, females, by gavage, site: any site (literature study), lesion: several types, types named in the paper, dosed 116 weeks, study length 116 weeks): negative (inactive) | carcinogen call (rat, strain BD VI, females, by gavage, site: liver, lesion: several types, types named in the paper, dosed 116 weeks, study length 116 weeks): negative (inactive)
